Measurements: patent US9084760B2, “Increasing glutathione levels for therapy” (priority 2008, dated 2015)

What was measured:
Plasma lipid peroxides = Plasma lipid peroxides in nondiabetic elderly humans after 2-week supplementation (Example 4); format: in vivo; conditions: after 2-week oral supplementation
Experimental: (§1) Eight nondiabetic elderly humans were studied in the basal state, and after 2-week oral supplementation with either n-acetylcysteine alone, glycine alone, or both supplements, with a 2-week washout period in-between. […] Plasma lipid peroxides were measured as a marker of ongoing damage due to oxidative stress. Eight younger adult subjects were also recruited as controls.

red blood cell GSH = assay: Red blood cell GSH concentration and ASR in nondiabetic elderly humans after 2-week supplementation (Example 4); format: in vivo; conditions: after 2-week oral supplementation
Experimental: as §1

lipid peroxides (ROOH) = assay: Plasma ROOH and glucose in diabetics after 2-week supplementation (Example 3); format: in vivo, humans; conditions: after 2-week dietary supplementation
Experimental: (§2) Eight diabetics were studied before and after 2-week dietary supplementation with either n-acetylcysteine (NAC), glycine, or both. Subjects received infusions of ^2H2-glycine to measure the concentration, fractional synthetic rates (FSR) and absolute synthetic rates (ASR) of red cell GSH. Plasma ROOH and glucose levels were measured. Eight non-diabetic subjects were studied as controls.

red cell GSH = assay: Red cell GSH concentration, FSR and ASR in diabetics after 2-week supplementation (Example 3); format: in vivo, humans; conditions: after 2-week dietary supplementation, Mean±SE
Experimental: as §2

SMILES	concentrations of lipid peroxides (Plasma lipid peroxides)	GSH concentration (red blood cell GSH)	GSH-ASR (red blood cell GSH)	glycemia (lipid peroxides (ROOH))	ROOH concentrations (lipid peroxides (ROOH); plasma)	GSH ASR (red cell GSH)	GSH FSR (red cell GSH)	GSH concentration (red cell GSH)
NCC(=O)O [glycine]	3.57±1.13 mmol/L ROOH	1.21±0.27 mmol/L RBC	0.71 ± 0.05 mmol/L/day					
CC(=O)N[C@@H](CS)C(=O)O [n-acetylcysteine]	3.22±1.29 mmol/L ROOH	1.37±0.30 mmol/L RBC	0.92 ± 0.23 mmol/L/day	remained unchanged	5.78±0.78	0.93 ± 0.18 mmol/L/day	61±2 %/d	1.61±0.15 mmol/LRBC
